Data published in patent US9446087B2, “Anti-resorptive and bone building dietary supplements and methods of use” (priority 2006, dated 2016).
Several values for one entry are separate records, joined by “and”; a condition that tells them apart may be missing. Equal entries are not always repeated. Marks after values point to notes of the source that are not given here.

Assays:
[1] = tested on: BMP-2 promoter; assay: BMP2 Promoter assay (2T3-BMP2-Luciferase cells, luciferase); type: cell-based, murine
[2] = tested on: BMP-2 protein; assay: BMP-2 Protein Expression Assay (Hu09 cells, ELISA); type: cell-based
Experimental: The cells are treated with different proteasome inhibitors for 24 hours. After incubation, the conditioned media is transferred into microcentrifuge tubes and centrifuged at 14,000 rpm for 2-3 minutes to remove cellular debris. The concentration of BMP-2 protein in the supernatant is then determined using the standard BMP-2 Elisa Kit (R&D ELISA KIT DBP200). Recombinant hBMP-2 (R&D) is used as a standard.

[3] = tested on: Neonatal murine calvaria; assay: Calvarial Assay to Measure Bone Growth; type: cell-based, Swiss white mice
Experimental: Neonatal murine calvaria from 4 day old Swiss white mice are excised, placed into BGJ media (Sigma), and cut in half along the midline suture. One milliliter of BGJ media supplemented with 0.1% bovine serum albumin (BSA) is added to each well of a 12 well tissue culture plate (Costar) to which the relevant factors or vehicles are added. Each half calvaria is placed on a stainless steel grid in the above media at the media/air interface. Usually 4 bones per experimental group are used. […] Factors to be tested are added on Day 0 (the day of dissection) and media is changed at 24 and 96 hours (if a 7 day assay is required). Calvaria are maintained in humidified air (5% Co2), at 37° C. Following the period of incubation, the calvaria are then removed and fixed overnight in 10% formalin. The calvaria are then decalcified in 14% EDTA overnight and are then embedded in paraffin wax. Sections are then cut, using a standard microtome, along the midline suture to reveal the coronal suture and the region posterior to this suture. Four micrometer sections were taken initially and at two sequential […] depths. Sections are placed on coated glass slides (Superfrost plus, Fisher Scientific, Pittsburgh, Pa.) and stained with hematoxylin and eosin. The total and new bone area (expressed as mm^2), suture thickness (mm), and number of cells lining the bone surface are determined in the section posterior to the […] suture. Histomorphometric analysis is performed using the Osteomeasure System (Osteometrics INC, Atlanta, Ga.).

[4] = tested on: BMP-2; assay: BMP-2 Gene Expression Assay (MG-63 cells, real time PCR); type: cell-based, human
Experimental: It is also possible to test for BMP-2 gene expression and protein expression using assays similar to those described above for testing BMP-2 promoter activity. In particular, for gene expression, the human osteosarcoma cell line, MG-63 (ATCC# CRL-1427), is maintained in phenol-red containing MEM (as recommended by ATCC) at 37° C. and 5% CO2. Twenty-four hours prior to experimentation, 3×10^5 cells are seeded in 12-well plates in phenol-red free MEM. […] After an overnight incubation, RNA is extracted using conventional trizol/guanidine isothiocyanate based lysis. The isolated RNA was digested with RNase-free DNase I to remove any DNA contamination and then reverse transcribed to cDNA using random hexamer as well as oligo(dT) primers according to the manufacturer's instructions (Stratagene). Quantitative real time PCR is performed using FAM-labeled specific primers for BMP-2 and HEX-labeled specific primers for 18S rRNA (Invitrogen). All reactions are carried out in triplicate and the relative amount of mRNAs in treated versus untreated samples is calculated using the comparative CT method established by Applied Biosystems (2001). Gene expression changes of 2-fold or greater are considered significant.

[5] = tested on: Female, Sprague Dawley rats; assay: In Vivo Study to Measure Bone Growth - biomechanical measurements; parameters: species or system rat; settings: positive control, 50 μg/kg (10 μg/200 g)/3 × per week; 35 days; vs placebo group
Experimental: Three different formulas were tested in an in vivo study involving female, intact rats, aged approximately 12-14 weeks, with approximate body weights between 200-250 grams. Formula 1 included dosages of quercetin anhydrate and licorice at 250 mg quercetin:250 mg licorice ethanol extract and 500 mg quercetin:500 mg licorice ethanol extract. Formula 2 included dosages of quercetin anhydrate and licorice at 250 mg quercetin:125 mg licorice ethanol extract; 500 mg quercetin:250 mg licorice ethanol extract; and 1000 mg quercetin:500 mg licorice ethanol extract. Formula 3 included dosages of quercetin and licorice at 1000 mg quercetin:200 mg licorice ethanol extract. The study lasted 35 days. […]
(§1) The effectiveness of the formulas on bone formation was assessed by outcome measurements that included biomechanical measurement (to assess bone strength and function information), micro-CT (to analyze virtual bone quality and function information), and histomorphology measurement (to analyze bone quality and functional information). […] These measurements were determined after 35 days of treatment.
Besides bone mass and bone volume evaluation, bone strength was examined mechanically using two different parameters. One parameter measured the maximum force needed to fracture the bone and the other determined the stiffness (the elasticity) of bone. […]

[6] = tested on: Female, Sprague Dawley rats; assay: In Vivo Study to Measure Bone Growth - histomorphological measurements; parameters: species or system rat; settings: positive control, 50 μg/kg (10 μg/200 g)/3 × per week; 35 days; vs placebo group
Experimental: Three different formulas were tested in an in vivo study involving female, intact rats, aged approximately 12-14 weeks, with approximate body weights between 200-250 grams. Formula 1 included dosages of quercetin anhydrate and licorice at 250 mg quercetin:250 mg licorice ethanol extract and 500 mg quercetin:500 mg licorice ethanol extract. Formula 2 included dosages of quercetin anhydrate and licorice at 250 mg quercetin:125 mg licorice ethanol extract; 500 mg quercetin:250 mg licorice ethanol extract; and 1000 mg quercetin:500 mg licorice ethanol extract. Formula 3 included dosages of quercetin and licorice at 1000 mg quercetin:200 mg licorice ethanol extract. The study lasted 35 days. Eight separate groups of rats were tested with 15 rats in each group. Two of the eight groups of rats tested were control groups. One was a placebo control group and the other group received 50 μg/kg (10 μg/200 g)/3× per week parathyroid hormone. Parathyroid hormone, known as an anabolic agent, served as a positive control. See, e.g., Turner et al., “Disuse in adult male rats attenuates the bone anabolic response to a therapeutic dose of parathyroid hormone.” J. Appl Physiol. 2006. […]
as §1
Six animals from each group were sacrificed on day 35 following treatment. […] To determine the effect of the different formulas on bone formation, trabecula bone volume, trabecular cells number and trabecular separation were assessed by histomorphology technique. […]
Bone mineral apposition rate (MARs), also reported by Table 8, was determined by measuring the mean interlabel distance divided by the time interval (5 days) between the two fluororchromes administered. […]

[7] = tested on: Female, Sprague Dawley rats; assay: In Vivo Study to Measure Bone Growth - micro-CT measurements; parameters: species or system rat; settings: positive control, 50 μg/kg (10 μg/200 g)/3 × per week; 35 days; vs placebo group
Experimental: Three different formulas were tested in an in vivo study involving female, intact rats, aged approximately 12-14 weeks, with approximate body weights between 200-250 grams. Formula 1 included dosages of quercetin anhydrate and licorice at 250 mg quercetin:250 mg licorice ethanol extract and 500 mg quercetin:500 mg licorice ethanol extract. Formula 2 included dosages of quercetin anhydrate and licorice at 250 mg quercetin:125 mg licorice ethanol extract; 500 mg quercetin:250 mg licorice ethanol extract; and 1000 mg quercetin:500 mg licorice ethanol extract. Formula 3 included dosages of quercetin and licorice at 1000 mg quercetin:200 mg licorice ethanol extract. The study lasted 35 days. Eight separate groups of rats were tested with 15 rats in each group. Two of the eight groups of rats tested were control groups. One was a placebo control group and the other group received 50 μg/kg (10 μg/200 g)/3× per week parathyroid hormone. Parathyroid hormone, known as an anabolic agent, served as a positive control. See, e.g., Turner et al., “Disuse in adult male rats attenuates the bone anabolic response to a therapeutic dose of parathyroid hormone.” J. Appl Physiol. 2006. Vol. 101:881-886, the entire contents of which are incorporated herein by reference.
Table 7 below indicates the formula given to each of the 8 test groups. The dosages in Table 7 are based on the recommended human daily dosages. FDA dose conversion formula (Human equivalent dose (HED, mg/kg)=rat dose in mg/kg×(rat weight in kg/human weight in kg)^0.33) was used to convert the human dose to the rat dose. HED=rat NOAEL×(W-rat/W-human)^(1-b), b=0.67.
Female, Sprague Dawley rats were used (200-250 gm each, ˜12-14 weeks old). Animals were fed at 15 gm/day, which included either a placebo diet or one of the formulas listed above, for a period of 35 days from the beginning of the experiment. Chow was made available each morning to the rats at the rate of 15 grams/rat/day. The rats were allowed free access to water and housed in appropriate cages for the entire experiment. Unrestricted activity was allowed during the entire experiment, which lasted 35 days.
as §1, with “treatment. […]” for “treatment.”
Obtaining information from a wide range of parameters such as bone mineral density (BMD), bone volume (% bone volume/total volume), trabecular number, and trabecular separation is critical for bone structure assessment quantitatively and qualitatively. […]

O=c1c(O)c(-c2ccc(O)c(O)c2)oc2cc(O)cc(O)c12 [Q, Quercetin]
BMP2 Promoter assay (ratio to control) ([1]; 0.05 μg/ml): 1.00 FOLD
BMP2 Promoter assay (ratio to control) ([1]; 0.1 μg/ml): 1.10 FOLD
BMP2 Promoter assay (ratio to control) ([1]; 0.2 μg/ml): 1.10 FOLD
BMP2 Promoter assay (ratio to control) ([1]; 0.4 μg/ml): 1.00 FOLD
BMP2 Promoter assay (ratio to control) ([1]; 0.8 μg/ml): 1.15 FOLD
BMP2 Promoter assay (ratio to control) ([1]; 1.6 μg/ml): 1.30 FOLD
BMP2 Promoter assay (ratio to control) ([1]; 3.2 μg/ml): 1.80 FOLD
BMP2 Promoter assay (ratio to control) ([1]; 6.3 μg/ml): 2.30 FOLD
BMP2 Promoter assay (ratio to control) ([1]; 12.5 μg/ml): 2.90 FOLD
BMP2 Promoter assay (ratio to control) ([1]; 25 μg/ml): 3.60 FOLD
BMP2 Promoter assay (ratio to control) ([1]; 50 μg/ml): 4.80 FOLD
BMP2 Promoter assay (ratio to control) ([1]; 100 μg/ml): 5.20 FOLD
BMP-2 Protein Expression ([2]; 1 μg/ml): 2.0 FOLD
BMP-2 Protein Expression ([2]; 10 μg/ml): 4.6 FOLD
BMP-2 Protein Expression ([2]; 100 μg/ml): 2.2 FOLD
Calvarial Assay Results - Bone Formation Stimulated by Extract Combinations ([3]; 0.2 ug/ml): 6.90 ± 0.56 mm^2 × 10^−3
Calvarial Assay Results - Bone Formation Stimulated by Extract Combinations ([3]; 0.7 ug/ml): 10.30 ± 0.78^a mm^2 × 10^−3
Calvarial Assay Results - Bone Formation Stimulated by Extract Combinations ([3]; 1 ug/ml): 13.70 ± 3.20^a mm^2 × 10^−3
Calvarial Assay Results- Bone formation ([3]; 1 μg/ml): 7.57 ± 1.52 mm^2 × 10^−3
Calvarial Assay Results - Bone Formation Stimulated by Extract Combinations ([3]; 8.3 ug/ml): 0.10 ± 0.10 mm^2 × 10^−3
Calvarial Assay Results- Bone formation ([3]; 10 μg/ml): 13.41 ± 2.50^a mm^2 × 10^−3
Calvarial Assay Results - Bone Formation Stimulated by Extract Combinations ([3]; 14.3 ug/ml): 0.10 ± 0.12 mm^2 × 10^−3
Calvarial Assay Results- Bone formation ([3]; 100 μg/ml): 13.55 ± 1.47^a mm^2 × 10^−3
BMP-2 Expression (fold change) ([4]; 0.1 μg/ml): No change (−1.06) fold change
BMP-2 Expression (fold change) ([4]; 1 μg/ml): 2 fold change and 2.03 fold change
BMP-2 Expression (fold change) ([4]; 5 μg/ml): 2.51 ± 0.14 fold change
Fold Change in Gene Expression ([4]; 10 μg/ml): 2.6 × increase
BMP-2 Expression (fold change) ([4]; 20 μg/ml): 4.61 ± 0.07 fold change
BMP-2 Expression (fold change) ([4]; 100 μg/ml): 14 fold change

CCC(C)(C)C(=O)O[C@H]1C[C@@H](C)C=C2C=C[C@H](C)[C@H](CC[C@@H]3C[C@@H](O)CC(=O)O3)[C@H]21 [Simvastatin]
Calvarial Assay Results- Bone formation ([3]; 0.25 μM, positive control): 7.45 ± 1.34 mm^2 × 10^−3
Calvarial Assay Results- Bone formation ([3]; 0.5 μM, positive control): 9.50 ± 1.00 mm^2 × 10^−3
Calvarial Assay Results- Bone formation ([3]; 1 μM, positive control): 12.5 ± 1.00 mm^2 × 10^−3

B1: PTH: parathyroid hormone, anabolic agent, positive control (protein, UniProt P01270 32-115, looked up)
Parathyroid hormone: SVSEIQLMHNLGKHLNSMERVEWLRKKLQDVHNFVALGAPLAPRDAGSQRPRKKEDNVLVESHEKSLGEADKADVNVLTKAKSQ
modifications: Parathyroid hormone
notes: parathyroid hormone, anabolic agent, positive control
Bone Stiffness [5]: 0.0%
Maximum Force Required to Fracture Bones [5]: 0.0%
Trabecular Separation [6]: −38.30%
Trabecular thickness [6]: 7.35%
reduction in trabecular separation [6]: 38.30%
% Bone Volume/ Total Volume [7]: 32%^a
Bone Mineral Density (BMD) [7]: 86%^a
Trabecular Number (N/6 mm^2) [7]: 25%^a
Trabecular separation (mm) [7]: −28%^a
